Measured values: patent US10800791B2, “Triazole ACC inhibitors and uses thereof” (Gilead Apollo, LLC, priority 2015, dated 2020)
Values after ≈ are worked out from the molar mass of the structure shown. Read-outs that look alike come from different tables or passages of the source.

Legend:
Rhizoctonia solani (Rs) = test: Growth inhibition assay of fungal pathogens, Rs; assay type: cell-based; conditions: 48 h
fungal (fACC2) = fungal (fACC2) (UniProt Q00955); conditions: read-out: fACC2 (in vitro ACC2 Inhibition Assay, IC50), ADP-Glo, 5 nM ACC2, 20 μM ATP, 20 μM acetyl-CoA
[1] = tested on: Fusarium virguliforme (Fv); test: Growth inhibition assay of fungal pathogens, Fv; assay type: cell-based; conditions: 48 h
Method in brief: (§1)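 Inhibition percentages reflect 48 h OD600 and visual scores relative to a 2% DMSO control. Test concentrations were 50, 10, 2 ppm or 2, 0.4, 0.08 ppm final, applied to spores in 17% V8 medium.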

human (hACC2) = human (hACC2) (Homo sapiens, UniProt O00763); test: In vitro ACC inhibition assay (ADP-Glo), hACC2; assay type: biochemical; conditions: 5 nM ACC2, 20 μM ATP, 20 μM acetyl-CoA
Description: The detailed procedure is as follows. […] 10 μL ADP glo reagent was added. […] 20 μL kinase detection reagent was added.

C. krusei = test: Antifungal Activity Assay (broth microtiter MIC), C. krusei; assay type: cell-based, Candida krusei; conditions: Pichia kudriavzevii, ATCC6258, 48 h
Method in brief: (§2)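 CLSI M27-A3 microdilution; RPMI 1640+MOPS; 2.5×10^3 CFU/mL final inoculum; cultures from Sabouraud dextrose agar, 35° C overnight; compound working solution 128 μg/mL from 1 mg/mL DMSO stock; visual MIC at 48 h vs growth control.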

Septoria tritici (St) = test: Growth inhibition assay of fungal pathogens, St; assay type: cell-based; conditions: Zymoseptoria tritici, 48 h
Method in brief: as §1

[2] = tested on: Phytophthora capsici (Pc); test: Growth inhibition assay of fungal pathogens, Pc; assay type: cell-based; conditions: 48 h
Method in brief: as §1

C. parapsilosis = test: Antifungal Activity Assay (broth microtiter MIC), C. parapsilosis; assay type: cell-based, Candida parapsilosis; conditions: Lodderomyces parapsilosis, ATCC22019, 48 h
Method in brief: as §2

[3] = tested on: Collectotrichum graminicola (Cg); test: Growth inhibition assay of fungal pathogens, Cg; assay type: cell-based; conditions: 48 h
Method in brief: as §1

[4] = tested on: Fusarium moniliforme (Fm); test: Growth inhibition assay of fungal pathogens, Fm; assay type: cell-based; conditions: for IC90: Fusarium verticillioides, 48 h, read-out: Concentration at 90% Inhibition Fm
Method in brief: as §1

[5] = Fusarium moniliforme, growth inhibition at 48 hours vs 2% DMSO control
[6] = read-out: Concentration at 90% Inhibition Rs, Rhizoctonia solani, mycelial plugs, growth inhibition at 48 hours vs 2% DMSO control
[7] = read-out: Concentration at 90% Inhibition Rs, Rhizoctonia solani, mycelial plugs, growth inhibition vs 2% DMSO control at 48 hours
[8] = read-out: Concentration at 90% Inhibition Fv, Fusarium virguliforme, growth inhibition at 48 hours vs 2% DMSO control
[9] = read-out: Concentration at 90% Inhibition Fv, Fusarium virguliforme, growth inhibition vs 2% DMSO control at 48 hours
[10] = read-out: MIC, C. krusei ATCC 6258, Table 3a, 3 replicates, MIC recorded at 48 h
[11] = read-out: MIC, C. krusei ATCC 6258, Table 3b (additional results), 3 replicates, MIC recorded at 48 h
[12] = read-out: Concentration at 90% Inhibition St, Septoria tritici, growth inhibition at 48 hours vs 2% DMSO control
[13] = read-out: Concentration at 90% Inhibition St, Septoria tritici, growth inhibition vs 2% DMSO control at 48 hours
[14] = read-out: Concentration at 90% Inhibition Pc, Phytophthora capsici, growth inhibition at 48 hours vs 2% DMSO control
[15] = read-out: Concentration at 90% Inhibition Pc, Phytophthora capsici, growth inhibition vs 2% DMSO control at 48 hours
[16] = read-out: MIC, C. parapsilosis ATCC 22019, Table 3a, 3 replicates, MIC recorded at 48 h
[17] = read-out: MIC, C. parapsilosis ATCC 22019, Table 3b (additional results), 3 replicates, MIC recorded at 48 h
[18] = read-out: Concentration at 90% Inhibition Cg, Collectotrichum graminicola, growth inhibition at 48 hours vs 2% DMSO control
[19] = read-out: Concentration at 90% Inhibition Cg, Collectotrichum graminicola, growth inhibition vs 2% DMSO control at 48 hours

human (hACC2), sequence (O00763 whole entry): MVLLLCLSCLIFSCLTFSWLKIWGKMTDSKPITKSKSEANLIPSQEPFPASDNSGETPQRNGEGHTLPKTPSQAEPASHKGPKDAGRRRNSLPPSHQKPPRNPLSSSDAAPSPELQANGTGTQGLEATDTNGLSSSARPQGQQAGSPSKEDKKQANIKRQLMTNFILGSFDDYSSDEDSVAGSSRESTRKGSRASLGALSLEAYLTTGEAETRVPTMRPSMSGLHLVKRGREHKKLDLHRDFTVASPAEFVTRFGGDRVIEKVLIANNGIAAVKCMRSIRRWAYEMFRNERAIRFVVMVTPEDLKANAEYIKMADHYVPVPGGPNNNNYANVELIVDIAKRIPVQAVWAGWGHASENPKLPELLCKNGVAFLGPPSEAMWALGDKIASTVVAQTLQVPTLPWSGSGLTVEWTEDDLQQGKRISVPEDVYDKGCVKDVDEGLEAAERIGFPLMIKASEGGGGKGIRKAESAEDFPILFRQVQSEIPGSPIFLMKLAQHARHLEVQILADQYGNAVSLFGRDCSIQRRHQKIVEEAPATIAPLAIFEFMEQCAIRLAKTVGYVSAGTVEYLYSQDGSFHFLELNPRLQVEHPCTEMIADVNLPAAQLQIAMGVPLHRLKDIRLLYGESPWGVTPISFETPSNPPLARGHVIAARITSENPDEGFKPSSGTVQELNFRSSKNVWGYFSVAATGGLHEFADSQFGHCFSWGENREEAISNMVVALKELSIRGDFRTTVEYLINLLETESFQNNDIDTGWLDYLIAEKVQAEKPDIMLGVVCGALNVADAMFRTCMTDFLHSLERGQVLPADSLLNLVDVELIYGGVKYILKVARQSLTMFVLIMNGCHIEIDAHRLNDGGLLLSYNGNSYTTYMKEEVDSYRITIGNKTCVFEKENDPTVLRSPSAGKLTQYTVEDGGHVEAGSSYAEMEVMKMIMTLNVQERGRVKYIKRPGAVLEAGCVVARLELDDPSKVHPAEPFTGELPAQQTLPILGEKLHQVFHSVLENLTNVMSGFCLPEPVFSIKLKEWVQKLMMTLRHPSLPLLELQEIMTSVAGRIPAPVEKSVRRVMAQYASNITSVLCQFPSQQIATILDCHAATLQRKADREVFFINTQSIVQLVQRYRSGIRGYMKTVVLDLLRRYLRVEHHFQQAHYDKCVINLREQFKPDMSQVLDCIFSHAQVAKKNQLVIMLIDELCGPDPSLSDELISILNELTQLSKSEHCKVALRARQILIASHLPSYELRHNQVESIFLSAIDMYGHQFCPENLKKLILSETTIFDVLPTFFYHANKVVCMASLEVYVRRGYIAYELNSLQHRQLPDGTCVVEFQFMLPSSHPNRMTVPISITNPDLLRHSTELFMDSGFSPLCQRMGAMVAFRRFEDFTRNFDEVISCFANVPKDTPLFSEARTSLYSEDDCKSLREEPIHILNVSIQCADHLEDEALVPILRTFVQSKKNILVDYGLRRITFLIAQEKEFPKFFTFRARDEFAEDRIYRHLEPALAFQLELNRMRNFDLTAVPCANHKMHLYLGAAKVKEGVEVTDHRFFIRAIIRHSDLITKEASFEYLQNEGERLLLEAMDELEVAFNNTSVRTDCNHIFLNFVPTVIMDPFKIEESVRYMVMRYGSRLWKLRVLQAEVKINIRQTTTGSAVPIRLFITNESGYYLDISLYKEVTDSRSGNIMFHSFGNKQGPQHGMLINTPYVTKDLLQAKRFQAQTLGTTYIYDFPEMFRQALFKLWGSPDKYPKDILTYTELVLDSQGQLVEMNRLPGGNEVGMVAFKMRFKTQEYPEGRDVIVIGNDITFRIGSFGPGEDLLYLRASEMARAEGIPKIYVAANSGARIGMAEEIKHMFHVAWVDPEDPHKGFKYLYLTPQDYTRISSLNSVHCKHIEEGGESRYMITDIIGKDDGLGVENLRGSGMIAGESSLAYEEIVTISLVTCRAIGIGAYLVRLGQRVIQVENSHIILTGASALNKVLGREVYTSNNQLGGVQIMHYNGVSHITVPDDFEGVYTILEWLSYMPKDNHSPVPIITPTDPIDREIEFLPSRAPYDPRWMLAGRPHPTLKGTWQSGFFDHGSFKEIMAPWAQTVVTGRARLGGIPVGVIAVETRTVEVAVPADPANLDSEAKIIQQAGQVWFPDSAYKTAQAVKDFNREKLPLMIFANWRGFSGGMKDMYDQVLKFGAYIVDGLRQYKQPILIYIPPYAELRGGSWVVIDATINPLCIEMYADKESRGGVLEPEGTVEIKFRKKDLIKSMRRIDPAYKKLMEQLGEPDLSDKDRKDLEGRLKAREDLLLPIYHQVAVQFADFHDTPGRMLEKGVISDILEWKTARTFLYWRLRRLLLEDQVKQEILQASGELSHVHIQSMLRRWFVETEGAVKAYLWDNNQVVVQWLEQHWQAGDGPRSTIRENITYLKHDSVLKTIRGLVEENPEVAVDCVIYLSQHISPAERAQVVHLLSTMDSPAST
fungal (fACC2), sequence (Q00955 whole entry): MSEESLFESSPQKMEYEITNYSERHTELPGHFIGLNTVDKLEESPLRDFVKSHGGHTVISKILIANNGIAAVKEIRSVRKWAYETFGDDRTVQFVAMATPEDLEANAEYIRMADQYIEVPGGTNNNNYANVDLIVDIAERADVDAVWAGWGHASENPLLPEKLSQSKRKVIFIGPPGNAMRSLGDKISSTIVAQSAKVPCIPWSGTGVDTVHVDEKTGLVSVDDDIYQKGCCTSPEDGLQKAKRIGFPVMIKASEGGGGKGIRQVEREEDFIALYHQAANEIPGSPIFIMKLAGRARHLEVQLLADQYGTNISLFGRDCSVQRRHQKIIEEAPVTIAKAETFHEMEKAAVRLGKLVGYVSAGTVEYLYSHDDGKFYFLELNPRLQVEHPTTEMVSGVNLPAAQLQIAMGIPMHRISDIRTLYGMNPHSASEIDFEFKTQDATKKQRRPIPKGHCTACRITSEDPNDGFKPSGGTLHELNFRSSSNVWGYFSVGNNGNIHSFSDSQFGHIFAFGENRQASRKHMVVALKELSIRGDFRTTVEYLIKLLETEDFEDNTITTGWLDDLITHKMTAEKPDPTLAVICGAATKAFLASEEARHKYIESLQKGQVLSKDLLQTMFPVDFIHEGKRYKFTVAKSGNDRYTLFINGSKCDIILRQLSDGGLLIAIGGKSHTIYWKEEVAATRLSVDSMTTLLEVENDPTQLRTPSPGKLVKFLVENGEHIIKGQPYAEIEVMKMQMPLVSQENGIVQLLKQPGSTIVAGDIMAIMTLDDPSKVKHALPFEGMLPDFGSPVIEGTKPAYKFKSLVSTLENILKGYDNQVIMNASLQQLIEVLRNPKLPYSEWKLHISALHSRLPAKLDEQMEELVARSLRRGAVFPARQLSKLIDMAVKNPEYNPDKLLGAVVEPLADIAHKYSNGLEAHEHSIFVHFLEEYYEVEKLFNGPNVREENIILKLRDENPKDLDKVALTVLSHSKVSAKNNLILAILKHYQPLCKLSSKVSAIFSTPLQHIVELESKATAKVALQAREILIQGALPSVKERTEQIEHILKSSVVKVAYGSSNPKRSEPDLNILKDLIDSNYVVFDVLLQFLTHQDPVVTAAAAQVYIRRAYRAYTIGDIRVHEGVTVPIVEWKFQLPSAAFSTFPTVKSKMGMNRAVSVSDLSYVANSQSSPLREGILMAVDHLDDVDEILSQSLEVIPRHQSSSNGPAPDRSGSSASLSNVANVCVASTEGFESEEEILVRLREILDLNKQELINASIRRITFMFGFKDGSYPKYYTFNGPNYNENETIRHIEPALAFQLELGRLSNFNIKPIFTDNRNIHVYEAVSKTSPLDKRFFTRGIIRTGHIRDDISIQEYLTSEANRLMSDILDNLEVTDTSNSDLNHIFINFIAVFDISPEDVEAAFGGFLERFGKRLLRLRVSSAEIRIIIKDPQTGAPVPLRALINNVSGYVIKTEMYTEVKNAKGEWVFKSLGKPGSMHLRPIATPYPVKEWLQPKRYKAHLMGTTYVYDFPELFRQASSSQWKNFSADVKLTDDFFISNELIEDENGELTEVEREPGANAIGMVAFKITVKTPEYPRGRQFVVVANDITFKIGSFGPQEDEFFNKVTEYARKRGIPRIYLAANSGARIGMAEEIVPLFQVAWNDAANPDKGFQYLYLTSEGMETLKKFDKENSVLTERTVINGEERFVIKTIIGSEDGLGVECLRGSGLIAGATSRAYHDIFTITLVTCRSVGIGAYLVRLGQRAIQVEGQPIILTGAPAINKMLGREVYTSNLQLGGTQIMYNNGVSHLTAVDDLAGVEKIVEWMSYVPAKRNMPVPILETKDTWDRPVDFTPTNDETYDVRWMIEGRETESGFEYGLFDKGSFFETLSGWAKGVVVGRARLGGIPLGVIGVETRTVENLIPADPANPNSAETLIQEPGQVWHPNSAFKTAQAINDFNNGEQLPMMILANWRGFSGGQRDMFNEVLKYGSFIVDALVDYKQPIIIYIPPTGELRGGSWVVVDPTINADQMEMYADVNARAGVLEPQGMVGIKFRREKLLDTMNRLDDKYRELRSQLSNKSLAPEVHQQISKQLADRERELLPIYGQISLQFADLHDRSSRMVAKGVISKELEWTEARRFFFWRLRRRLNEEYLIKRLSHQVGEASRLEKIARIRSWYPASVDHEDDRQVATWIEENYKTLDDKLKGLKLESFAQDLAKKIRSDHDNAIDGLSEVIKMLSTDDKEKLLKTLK

Row | SMILES | IC50 (fungal (fACC2); Table 2a) | IC50 (fungal (fACC2); Table 2b, additional results) | IC50 (human (hACC2); Table 2a) | IC50 (human (hACC2); Table 2b, additional results) | IC90 (Rhizoctonia solani (Rs); [6]) | IC90 (Rhizoctonia solani (Rs); [7]) | IC90 [1, 8] | IC90 [1, 9] | MIC (C. krusei; [10]) | MIC (C. krusei; [11]) | IC90 (Septoria tritici (St); [12]) | IC90 (Septoria tritici (St); [13]) | IC90 [2, 14] | IC90 [2, 15] | MIC (C. parapsilosis; [16]) | MIC (C. parapsilosis; [17]) | IC90 [3, 18] | IC90 [3, 19] | Concentration at 90% Inhibition Fm [4, 5] | IC90 [4] | further results
1 | Cc1c(-n2nccn2)sc2c1c(=O)n(C(C)(C)C(=O)NC(C)C)c(=O)n2C[C@H](OC(C)C)c1cc(F)ccc1OCC1COC1 [Compound I-55, (R)-2-(1-(2-(5-fluoro-2-(oxetan-3-ylmethoxy)phenyl)-2-isopropoxyethyl)-5-methyl-2,4-dioxo-6-(2H-1,2,3-triazol-2-yl)-1,4-dihydrothieno[2,3-d]pyrimidin-3(2H)-yl)-N-isopropyl-2-methylpropanamide] | 1 to 5 nM | 1 to 5 nM | 10 to 40 nM | 10 to 40 nM | – | – | – | – | – | – | – | – | – | – | – | – | – | – | – | – | IC90 (Rhizoctonia solani (Rs); mycelial plugs, growth inhibition at 48 hours vs 2% DMSO control, read-out: Concentration at 90% Inhibition Rs): 0.4 mg/L (≈ 0.622 µM); IC90 (Rhizoctonia solani (Rs); mycelial plugs, growth inhibition vs 2% DMSO control at 48 hours, read-out: Concentration at 90% Inhibition Rs): 0.4 mg/L (≈ 0.622 µM); IC90 ([1]; growth inhibition at 48 hours vs 2% DMSO control, read-out: Concentration at 90% Inhibition Fv): 0.4 mg/L (≈ 0.622 µM); IC90 ([1]; growth inhibition vs 2% DMSO control at 48 hours, read-out: Concentration at 90% Inhibition Fv): 0.4 mg/L (≈ 0.622 µM); MIC (C. krusei; Table 3a, ATCC 6258, 3 replicates, MIC recorded at 48 h, read-out: MIC, C. krusei ATCC 6258): 0.25 to 1 mg/L (≈ 0.389 to 1.56 µM); MIC (C. krusei; Table 3b (additional results), ATCC 6258, 3 replicates, MIC recorded at 48 h, read-out: MIC, C. krusei ATCC 6258): 1.01 to 2 mg/L (≈ 1.57 to 3.11 µM); IC90 (Septoria tritici (St); Septoria tritici, growth inhibition at 48 hours vs 2% DMSO control, read-out: Concentration at 90% Inhibition St): > 50 mg/L; IC90 (Septoria tritici (St); Septoria tritici, growth inhibition vs 2% DMSO control at 48 hours, read-out: Concentration at 90% Inhibition St): > 50 mg/L; IC90 ([2]; growth inhibition at 48 hours vs 2% DMSO control, read-out: Concentration at 90% Inhibition Pc): > 50 mg/L; IC90 ([2]; growth inhibition vs 2% DMSO control at 48 hours, read-out: Concentration at 90% Inhibition Pc): > 50 mg/L; MIC (C. parapsilosis; Table 3a, ATCC 22019, 3 replicates, MIC recorded at 48 h, read-out: MIC, C. parapsilosis ATCC 22019): 0.25 to 1 mg/L (≈ 0.389 to 1.56 µM); MIC (C. parapsilosis; Table 3b (additional results), ATCC 22019, 3 replicates, MIC recorded at 48 h, read-out: MIC, C. parapsilosis ATCC 22019): 1.01 to 2 mg/L (≈ 1.57 to 3.11 µM); IC90 ([3]; Collectotrichum graminicola, growth inhibition at 48 hours vs 2% DMSO control, read-out: Concentration at 90% Inhibition Cg): 0.4 mg/L (≈ 0.622 µM); IC90 ([3]; Collectotrichum graminicola, growth inhibition vs 2% DMSO control at 48 hours, read-out: Concentration at 90% Inhibition Cg): 0.4 mg/L (≈ 0.622 µM); IC90 [4, 5]: 0.08 mg/L (≈ 0.124 µM); IC90 ([4]; Fusarium moniliforme, growth inhibition vs 2% DMSO control at 48 hours): 0.08 mg/L (≈ 0.124 µM)
2 | CCNC(=O)C(C)(C)n1c(=O)c2c(C)c(-n3nccn3)sc2n(C[C@H](OC(C)C)c2cc(F)ccc2OC)c1=O [Compound I-3, (R)—N-ethyl-2-(1-(2-(5-fluoro-2-methoxyphenyl)-2-isopropoxyethyl)-5-methyl-2,4-dioxo-6-(2H-1,2,3-triazol-2-yl)-1,4-dihydrothieno[2,3-d]pyrimidin-3(2H)-yl)-2-methylpropanamide] | 1 to 5 nM | 1 to 5 nM | 5 to 10 nM | 5 to 10 nM | 0.08 mg/L (≈ 0.14 µM) | 0.08 mg/L (≈ 0.14 µM) | 0.4 mg/L (≈ 0.698 µM) | 0.4 mg/L (≈ 0.698 µM) | 0.25 to 1 mg/L (≈ 0.437 to 1.75 µM) | 0.25 to 1 mg/L (≈ 0.437 to 1.75 µM) | 10 mg/L (≈ 17.5 µM) | > 50 mg/L | > 50 mg/L | > 50 mg/L | 1.1 to 2 mg/L (≈ 1.92 to 3.49 µM) | 2.01 to 4 mg/L (≈ 3.51 to 6.98 µM) | 0.4 mg/L (≈ 0.698 µM) | 0.4 mg/L (≈ 0.698 µM) | AA (compound concentration of 0.08 ppm at 90% inhibition of fungal pathogens) | 0.08 mg/L (≈ 0.14 µM) | –
3 | COCCO[C@@H](Cn1c(=O)n(CC(=O)NC(C)C)c(=O)c2c(C)c(-n3nccn3)sc21)c1cc(F)ccc1OC [Compound I-80, (R)-2-(1-(2-(5-fluoro-2-methoxyphenyl)-2-(2-methoxy-ethoxy)ethyl)-5-methyl-2,4-dioxo-6-(2H-1,2,3-triazol-2-yl)-1,4-dihydro-thieno[2,3-d]pyrimidin-3(2H)-yl)-N-isopropylacetamide] | 1 to 5 nM | 1 to 5 nM | > 40 nM | > 40 nM | 10 mg/L (≈ 17.4 µM) | > 50 mg/L | 2 mg/L (≈ 3.48 µM) | 10 mg/L (≈ 17.4 µM) | 2.1 to 4 mg/L (≈ 3.65 to 6.96 µM) | > 4.01 mg/L | > 50 mg/L | > 50 mg/L | > 50 mg/L | > 50 mg/L | 2.1 to 4 mg/L (≈ 3.65 to 6.96 µM) | 2.01 to 4 mg/L (≈ 3.5 to 6.96 µM) | > 50 mg/L | > 50 mg/L | AA (compound concentration of 0.08 ppm at 90% inhibition of fungal pathogens) | 0.08 mg/L (≈ 0.139 µM) | –
4 | COc1ccc(F)cc1[C@H](Cn1c(=O)n(CC(=O)NC(C)C)c(=O)c2c(C)c(-n3nccn3)sc21)OC(C)C [Compound I-35, (R)-2-(1-(2-(5-fluoro-2-methoxyphenyl)-2-isopropoxy-ethyl)-5-methyl-2,4-dioxo-6-(2H-1,2,3-triazol-2-yl)-1,4-dihydrothieno[2,3-d]pyrimidin-3(2H)-yl)-N-isopropylacetamide] | 1 to 5 nM | 1 to 5 nM | 1 to 5 nM | 1 to 5 nM | 2 mg/L (≈ 3.58 µM) | 10 mg/L (≈ 17.9 µM) | 0.4 mg/L (≈ 0.716 µM) | 0.4 mg/L (≈ 0.716 µM) | 2.1 to 4 mg/L (≈ 3.76 to 7.16 µM) | > 4.01 mg/L | > 50 mg/L | > 50 mg/L | > 50 mg/L | > 50 mg/L | 2.1 to 4 mg/L (≈ 3.76 to 7.16 µM) | 2.01 to 4 mg/L (≈ 3.6 to 7.16 µM) | > 50 mg/L | > 50 mg/L | AA (compound concentration of 0.08 ppm at 90% inhibition of fungal pathogens) | 0.08 mg/L (≈ 0.143 µM) | –
5 | COc1ccc(F)cc1[C@H](Cn1c(=O)n(C(C)(C)C(=O)NC2CCCCC2)c(=O)c2c(C)c(-n3nccn3)sc21)OC1CCOCC1 [Compound I-28, (R)—N-cyclohexyl-2-(1-(2-(5-fluoro-2-methoxyphenyl)-2-((tetrahydro-2H-pyran-4-yl)oxy)ethyl)-5-methyl-2,4-dioxo-6-(2H-1,2,3-triazol-2-yl)-1,4-dihydrothieno[2,3-d]pyrimidin-3(2H)-yl)-2-methylpropanamide] | 1 to 5 nM | 1 to 5 nM | 10 to 40 nM | 10 to 40 nM | 0.4 mg/L (≈ 0.598 µM) | 0.4 mg/L (≈ 0.598 µM) | 0.4 mg/L (≈ 0.598 µM) | 0.4 mg/L (≈ 0.598 µM) | 0.06 to 0.24 mg/L (≈ 0.0897 to 0.359 µM) | 0.06 to 0.249 mg/L (≈ 0.0897 to 0.372 µM) | 2 mg/L (≈ 2.99 µM) | 10 mg/L (≈ 15 µM) | > 50 mg/L | > 50 mg/L | 0.25 to 1 mg/L (≈ 0.374 to 1.5 µM) | 0.25 to 1 mg/L (≈ 0.374 to 1.5 µM) | 2 mg/L (≈ 2.99 µM) | 2 mg/L (≈ 2.99 µM) | AA (compound concentration of 0.08 ppm at 90% inhibition of fungal pathogens) | 0.08 mg/L (≈ 0.12 µM) | –
